# Test results reported in US20100081679A1, “DIAMINOPYRIMIDINES AS FUNGICIDES” (Bayer CropScience AG, priority 2007, published 2010).
# Marks after values point to notes of the source that are not given here.
# Test: logP determination via retention times, calibrated with unbranched alkan-2-ones
# Format: physicochemical
# Details: HPLC on reversed-phase C 18, EEC Directive 79/831 Annex V.A8; method *: 40° C., 0.1% aqueous formic acid and acetonitrile, linear gradient 10% to 95% acetonitrile
row,Structure (SMILES),logP
1,Clc1cnc(Nc2cccc(N3CCCCC3)c2)nc1NC1CC1 [compound 535],1.45*
2,CCOC(=O)Cc1ccc(Nc2ncc(Br)c(NCC3CC3)n2)cc1 [compound 486],2.18*
3,CC(=O)Nc1ccc(Nc2ncc(Cl)c(NCC3CC3)n2)cn1 [compound 507],0.89*
4,CN(C(=O)C(C)(C)C)c1ccc(Nc2ncc(Cl)c(NCC3CC3)n2)cc1 [compound 525],2.02*
5,CNC(=O)c1ccc(Nc2ncc(Cl)c(NCC3CC3)n2)cc1 [compound 510],1.44*

# Same assay, conditions: HPLC on reversed-phase C 18, method **: 43° C.; 0.1% aqueous phosphoric acid and acetonitrile; linear gradient 10% to 95% acetonitrile
row,Structure (SMILES),logP
1,CN(CC1CC1)c1nc(Nc2cccc(N3CCCC3=O)c2)ncc1Cl [compound 964],2.21**

# Same assay, conditions: HPLC on reversed-phase C18, method *: 40° C., 0.1% aqueous formic acid and acetonitrile, linear gradient 10% to 95% acetonitrile
row,Structure (SMILES),logP
1,CCOc1cccc(Nc2ncc(Br)c(NC3CC3)n2)c1 [compound 751],2.18*
2,O=C(c1ccc(Nc2ncc(Cl)c(NCC3CC3)n2)cc1)N1CCOCC1 [compound 696],1.59*
3,N#Cc1cnc(Nc2ccc(N3CCCC3=O)cc2)nc1NC1CC1 [compound 157],1.89*
4,CC1COC(=O)N1c1ccc(Nc2ncc(Br)c(NCC3CC3)n2)cc1 (stereo not drawn) [compound 118],1.72*
5,N#Cc1ccccc1Nc1ncc(Cl)c(NC2CC2)n1 [compound 881],0.85*
6,FC(F)C(F)(F)Oc1ccccc1Nc1ncc(Cl)c(NC2CC2)n1 [compound 896],3.14*

# Same assay, conditions: HPLC on reversed-phase C18, method *: 40° C.; mobile phase 0.1% aqueous formic acid and acetonitrile; linear gradient 10% to 95% acetonitrile
row,Structure (SMILES),logP
1,FC(F)(F)Oc1cccc(Nc2ncc(Br)c(NC3CC3)n2)c1 [compound 301],3.68*
2,FC1(F)Oc2ccc(Nc3ncc(Cl)c(NC4CC4)n3)cc2OC1(F)F [compound 289],3.76*

# Same assay, conditions: HPLC on reversed-phase C18 column (EEC Directive 79/831 Annex V.A8); method *: 40° C.; 0.1% aqueous formic acid and acetonitrile; linear gradient 10% to 95% acetonitrile
row,Structure (SMILES),logP
1,Clc1cnc(Nc2ccc(-c3nccs3)cc2)nc1NC1CC1 [compound 253],2.32*
2,COCC(C)Oc1ccc(Nc2ncc(Cl)c(NC3CC3)n2)cc1 (stereo not drawn) [compound 188],1.73*
3,CC(C)Oc1cccc(Nc2ncc(Cl)c(NC3CC3)n2)c1 [compound 195],2.45*

# Same assay, conditions: HPLC reversed-phase C 18, EEC Directive 79/831 Annex V.A8; method *: 40° C., 0.1% aqueous formic acid and acetonitrile, linear gradient 10% to 95% acetonitrile
row,Structure (SMILES),logP
1,CC(=O)Cc1ccc(Nc2ncc(Cl)c(NC3CC3)n2)cc1 [compound 851],1.48*
2,CC(=O)CCc1cccc(Nc2ncc(Cl)c(NC3CC3)n2)c1 [compound 841],1.72*

# Same assay, conditions: method **: HPLC reversed-phase C 18, 43° C., 0.1% aqueous phosphoric acid and acetonitrile, linear gradient 10% to 95% acetonitrile
row,Structure (SMILES),logP
1,O=[N+]([O-])c1ccc(Nc2ncc(Cl)c(NC3CC3)n2)cc1 [compound 438],2.9**
2,CN(C)S(=O)(=O)c1cccc(Nc2ncc(Cl)c(NC3CC3)n2)c1 [Example 28],2.04**
3,O=C1OCCN1c1ccc(Nc2ncc(C(F)(F)F)c(NC3CC3)n2)cc1 [compound 367],2.04**
4,Cc1cc(C)nc(NS(=O)(=O)c2ccc(Nc3ncc(Cl)c(NC4CC4)n3)cc2)n1 [compound 26],1.72**
5,Clc1cnc(Nc2ccccc2)nc1NCC1CC1 [Example 10],1.85**
6,CNS(=O)(=O)c1ccc(Nc2ncc(Cl)c(NCC3CC3)n2)cc1 [compound 20],1.87**

# Same assay, conditions: method *: HPLC reversed-phase C18, 40° C., 0.1% aqueous formic acid and acetonitrile, linear gradient 10% to 95% acetonitrile
row,Structure (SMILES),logP
1,OCc1cccc(Nc2ncc(Cl)c(NC3CC3)n2)c1 [Example 82],1.22*
2,CC(C)(C)OC(=O)Nc1ccc(Nc2ncc(Br)c(NC3CC3)n2)cc1 [compound 391],2.13*
3,CC(C)CSc1cccc(Nc2ncc(Cl)c(NC3CC3)n2)c1 [compound 435],3.75*
4,CC(C)(C)C(=O)Nc1ccc(Nc2ncc(Cl)c(NC3CC3)n2)cc1 [Example 72],1.81*
5,O=C1OCCN1c1ccc(Nc2ncc(C(F)(F)F)c(NC3CC3)n2)cc1 [compound 367],1.94*;
6,CC(=O)c1ccc(Nc2ncc(Br)c(NCC3CC3)n2)cc1 [compound 456],2.26*

# Same assay, conditions: method *: HPLC reversed-phase C 18, temperature 40° C.; mobile phase 0.1% aqueous formic acid and acetonitrile; linear gradient 10% to 95% acetonitrile
row,Structure (SMILES),logP
1,CS(=O)(=O)c1ccc(Nc2ncc(C#N)c(NC3CC3)n2)cc1 [compound 605],1.92*
2,N#Cc1cnc(Nc2ccc3c(c2)CC(=O)N3)nc1NC1CC1 [compound 613],1.5*
3,N#Cc1ccc(Nc2ncc(C(F)(F)F)c(NC3CC3)n2)cc1 [compound 642],2.99*

# Same assay, conditions: method *: HPLC, reversed-phase C 18, 40° C., mobile phase 0.1% aqueous formic acid and acetonitrile, linear gradient from 10% to 95% acetonitrile
row,Structure (SMILES),logP
1,CC1CCCN1C(=O)c1cccc(Nc2ncc(Cl)c(NC3CC3)n2)c1 (stereo not drawn) [compound 1062],1.86*

# Same assay, conditions: pH 2.3; read-out: logP (pH2.3)
row,Structure (SMILES),chromatographic logP
1,FC(F)(F)c1cnc(Cl)nc1NCC1CC1 [2-chloro-N-(cyclopropylmethyl)-5-trifluoromethylpyrimidine-4-amine],3.4
